Laboratory results taken from publication PMC4780272, “New Concept of the Biosynthesis of 4-Alkyl-L-Proline Precursors of Lincomycin, Hormaomycin, and Pyrrolobenzodiazepines: Could a γ-Glutamyltransferase Cleave the C–C Bond?” (Frontiers in Microbiology, 2016).

Biological target: T1, LmbW (Streptomyces lincolnensis, UniProt A9Y8T3)
T1 construct: gene SLINC_0255; lmbW amplified from LK6 cosmid, cloned in pET42b(+), produced in E. coli BL21(DE3), purified as described for LmbC
T1 sequence (A9Y8T3 1-350): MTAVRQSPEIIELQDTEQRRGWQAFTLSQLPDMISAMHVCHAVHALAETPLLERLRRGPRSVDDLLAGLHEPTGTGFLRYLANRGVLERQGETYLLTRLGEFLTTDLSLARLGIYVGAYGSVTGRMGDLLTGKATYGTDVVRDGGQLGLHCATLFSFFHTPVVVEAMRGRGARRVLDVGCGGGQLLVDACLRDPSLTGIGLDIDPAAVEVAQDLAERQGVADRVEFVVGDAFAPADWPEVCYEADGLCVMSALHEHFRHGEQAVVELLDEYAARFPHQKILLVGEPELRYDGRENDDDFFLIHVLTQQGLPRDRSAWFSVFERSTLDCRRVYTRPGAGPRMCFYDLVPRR
Test: LC-MS of methylated product
Format: biochemical
Conditions: methyl donor; co-substrate 3 4 mM, S-adenosylmethionine 4 mM, glycine buffer 40 mM pH 9.5, 28°C, 1 h

## C[S+](CC[C@H](N)C(=O)O)C[C@H]1O[C@@H](n2cnc3c(N)ncnc32)[C@H](O)[C@@H]1O (stereo partly shown) [S-adenosylmethionine]
  LC-MS of methylated product: In the reaction with LmbW and S-adenosylmethionine, we identified a product
